pIC50: −log10 of the molar value.

The term pIC50 denotes the IC50 on a negative log10 scale, so that one unit is a factor of ten.

The target of the assay is T1, RORc ligand binding domain (Homo sapiens, UniProt P51449).
T1 sequence (P51449 269-508 limits assumed): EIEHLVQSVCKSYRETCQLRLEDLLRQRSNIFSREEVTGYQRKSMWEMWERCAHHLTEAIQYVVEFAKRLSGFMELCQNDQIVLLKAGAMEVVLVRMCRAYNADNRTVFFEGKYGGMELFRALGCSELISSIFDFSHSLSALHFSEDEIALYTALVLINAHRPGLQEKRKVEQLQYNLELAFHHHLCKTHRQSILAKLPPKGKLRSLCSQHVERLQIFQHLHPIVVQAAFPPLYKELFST
Kind of assay: In vitro RORc ligand binding assay (25-[3H]hydroxycholesterol displacement).
Protocol: This assay was used to determine a compound's potency in inhibiting activity of RORc by determining, Kiapp, IC50, or percent inhibition values.
On day of the assay, 100 uL of 0.05% CHAPS (in deionized H2O) was added to all wells of the GFB Unifilter plate and allowed soak for 1 h. A wash buffer of 50 mM HEPES (pH 7.4), 150 mM NaCl, and 5 mM MgCl2 was prepared to wash the filter plate. To prepare an assay buffer, BSA was added to the wash buffer to reach 0.01% and DTT was added to reach 1 mM.
The 20× compound stocks were diluted in DMSO with Assay Buffer 4-fold to reach 5× the final test concentration in 25% DMSO (10 uL compound+30 uL Assay Buffer). Solutions were mixed by aspiration several times with a pipette set on 50 uL volume.
For two point screening, 10 mM stock compound solutions were diluted in DMSO to obtain 200 uM (20× the high test concentration) and then diluted 10-fold further to reach 20 uM (20× the low test concentration). The 20× stocks were diluted 4-fold with Assay Buffer (10 uL compound+30 uL Assay Buffer) to reach 5× the test concentrations (50 uM and 5 uM) and 10 uL were added to two assay plates for the duplicate wells. With each concentration tested on 2 plates, each set of 80 compounds used 4 assay plates (1 uM and 10 uM, with n=2).
Nonspecific Binding (NSB) Samples, Total Binding (TB) Samples and No Receptor (No R) Samples
For 25-hydroxycholesterol in 25% DMSO/75% Assay Buffer; 10 uL per well was used for NSB samples. Wells for Total Binding and No Receptor sample determination contained 10 uL of 25% DMSO/75% Assay Buffer per well.
Radioligand 25-[^3H]Hydroxycholesterol) Preparation
Add 20 uL to all wells to reach 6 nM final in the assay.
Stock receptor solution was diluted in assay buffer to obtain 1.5 ug/mL in Assay Buffer. 20 uL was added to all wells. For No R samples, 20 uL Assay Buffer was substituted for receptor solution.
Sample addition to Plates and Incubation
Assay plates were 96-well polypropylene V-bottom plates. […] 10 uL of 25% DMSO/75% Assay Buffer was added to Total Binding or No Receptor wells. 10 uL of 5 uM 25-hydroxycholesterol in 25% DMSO/75% Assay Buffer was added to NSB wells. […] 20 uL of 1.5 ug/mL RORc receptor was added to wells (or 40 uL Assay Buffer to No R wells). Following addition to the wells, the plates were incubated 3 h at 25° C.
Using a Packard Filtermate Harvester, the filter plate were washed 4 times following transfer of the incubated samples. Plates were dry-filtered completely (2 h at 50° C. or overnight at room temperature). 50 uL Microscint 0 was added to all wells and read on Topcount protocol Inverted.
Final concentrations were as follows: 50 mM HEPES buffer (pH 7.4); 150 mM NaCl; 1 mM DTT; 5 mM MgCl2; 0.01% BSA; 5% DMSO; 0.6 ug/mL RORc receptor; 6 nM 25-[^3H]hydroxycholesterol. For NSB wells, 1 uM 25-hydroxycholesterol was also present.
As for `Cc1nnc(C2(c3cc(F)c(CN4[C@@H](C)CC[C@H](c5ccccc5)S4(=O)=O)cc3F)CCOCC2)[nH]1` [Example 48, (3S,6R)-2-[[2,5-difluoro-4-[4-(5-methyl-4H-1,2,4-triazol-3-yl)tetrahydropyran-4-yl]phenyl]methyl]-3-methyl-6-phenyl-thiazinane 1,1-dioxide], the pIC50 is 7.67.

For the compound `Cc1nnc(C2(c3cc(F)c(CN4[C@@H](C)CC[C@H](c5ccccc5)S4(=O)=O)cc3F)CC2)[nH]1` [Example 49, (3S,6R)-2-[[2,5-difluoro-4-[1-(5-methyl-4H-1,2,4-triazol-3-yl)cyclopropyl]phenyl]methyl]-3-methyl-6-phenyl-thiazinane 1,1-dioxide], the pIC50 is 7.39. As for `C[C@H]1CC[C@H](c2ccccc2)S(=O)(=O)N1Cc1cc(F)c(C2(c3nnc[nH]3)CCOCC2)cc1F` [Example 50, (3S,6R)-2-[[2,5-difluoro-4-[4-(4H-1,2,4-triazol-3-yl)tetrahydropyran-4-yl]phenyl]methyl]-3-methyl-6-phenyl-thiazinane 1,1-dioxide], the figure is 7.54.

`CCOC(=O)Cn1cnc(C2(c3cc(F)c(CN4[C@@H](C)CC[C@H](c5ccccc5)S4(=O)=O)cc3F)CCOCC2)n1` [Example 52, ethyl 2-[3-[4-[2,5-difluoro-4-[[(3S,6R)-3-methyl-1,1-dioxo-6-phenyl-thiazinan-2-yl]methyl]phenyl]tetrahydropyran-4-yl]-1,2,4-triazol-1-yl]acetate]: the pIC50 is 7.15.

Regarding `C[C@H]1CC[C@H](c2ccccc2)S(=O)(=O)N1Cc1cc(F)c(C2(c3ncn(CC(N)=O)n3)CCOCC2)cc1F` [Example 53, 2-[3-[4-[2,5-difluoro-4-[[(3S,6R)-3-methyl-1,1-dioxo-6-phenyl-thiazinan-2-yl]methyl]phenyl]tetrahydropyran-4-yl]-1,2,4-triazol-1-yl]acetamide], the pIC50 was 6.99. The result for `C[C@H]1CC[C@H](c2ccccc2)S(=O)(=O)N1Cc1cc(F)c(C2(c3ncn(CCO)n3)CCOCC2)cc1F` [Example 54, 2-[3-[4-[2,5-difluoro-4-[[(3S,6R)-3-methyl-1,1-dioxo-6-phenyl-thiazinan-2-yl]methyl]phenyl]tetrahydropyran-4-yl]-1,2,4-triazol-1-yl]ethanol] reads 7.24.

`C[C@H]1CC[C@H](c2ccccc2)S(=O)(=O)N1Cc1ccc(C2(NCc3ncnn3C)CCOCC2)cc1F` [Example 55, 4-[3-fluoro-4-[[(3S,6R)-3-methyl-1,1-dioxo-6-phenyl-thiazinan-2-yl]methyl]phenyl]-N-[(2-methyl-1,2,4-triazol-3-yl)methyl]tetrahydropyran-4-amine]: the pIC50 was 7.97. Turning to `C[C@H]1CC[C@H](c2ccccc2)S(=O)(=O)N1Cc1ccc(C2(OCc3nnc[nH]3)CCOCC2)cc1F` [Example 56, (3S,6R)-2-[[2-fluoro-4-[4-(4H-1,2,4-triazol-3-ylmethoxy)tetrahydropyran-4-yl]phenyl]methyl]-3-methyl-6-phenyl-thiazinane 1,1-dioxide], the pIC50 was 8.14. The result for `C[C@H]1CC[C@H](c2ccccc2)S(=O)(=O)N1Cc1cc(F)c(C2(c3nnc(CO)o3)CCOCC2)cc1F` [Example 57, [5-[4-[2,5-difluoro-4-[[(3S,6R)-3-methyl-1,1-dioxo-6-phenyl-thiazinan-2-yl]methyl]phenyl]tetrahydropyran-4-yl]-1,3,4-oxadiazol-2-yl]methanol] reads 7.55. As for `C[C@H]1CC[C@H](c2ccccc2)S(=O)(=O)N1Cc1cc(F)c(C2(c3n[nH]c(=O)o3)CCOCC2)cc1F` [Example 58, 5-[4-[2,5-difluoro-4-[[(3S,6R)-3-methyl-1,1-dioxo-6-phenyl-thiazinan-2-yl]methyl]phenyl]tetrahydropyran-4-yl]-3H-1,3,4-oxadiazol-2-one], the pIC50 was 8.18. The result for `C[C@H]1CC[C@H](c2ccccc2)S(=O)(=O)N1Cc1ccc(C2(OCc3nnc[nH]3)COC2)cc1F` [Example 59, (3S,6R)-2-[[2-fluoro-4-[3-(4H-1,2,4-triazol-3-ylmethoxy)oxetan-3-yl]phenyl]methyl]-3-methyl-6-phenyl-thiazinane 1,1-dioxide] reads 7.63; that for `CCOC(=O)c1nnc(C2(c3cc(F)c(CN4[C@@H](C)CC[C@H](c5ccccc5)S4(=O)=O)cc3F)CCOCC2)o1` [Example 60, ethyl 5-[4-[2,5-difluoro-4-[[(3S,6R)-3-methyl-1,1-dioxo-6-phenyl-thiazinan-2-yl]methyl]phenyl]tetrahydropyran-4-yl]-1,3,4-oxadiazole-2-carboxylate], 8.38; that for `C[C@H]1CC[C@H](c2ccccc2)S(=O)(=O)N1Cc1cc(F)c(C2(c3nnc(N)o3)CCOCC2)cc1F` [Example 61, 5-[4-[2,5-difluoro-4-[[(3S,6R)-3-methyl-1,1-dioxo-6-phenyl-thiazinan-2-yl]methyl]phenyl]tetrahydropyran-4-yl]-1,3,4-oxadiazol-2-amine], 7.72. As for `C[C@H]1CC[C@H](c2ccccc2)S(=O)(=O)N1Cc1ccc(C2(NCc3cnc[nH]3)CCOCC2)cc1F` [Example 62, 4-[3-fluoro-4-[[(3S,6R)-3-methyl-1,1-dioxo-6-phenyl-thiazinan-2-yl]methyl]phenyl]-N-(1H-imidazol-5-ylmethyl)tetrahydropyran-4-amine], the figure is 7.69; as for `C[C@H]1CC[C@H](c2ccccc2)S(=O)(=O)N1Cc1ccc(C2(NCc3cc[nH]n3)CCOCC2)cc1F` [Example 63, 4-[3-fluoro-4-[[(3S,6R)-3-methyl-1,1-dioxo-6-phenyl-thiazinan-2-yl]methyl]phenyl]-N-(1H-pyrazol-3-ylmethyl)tetrahydropyran-4-amine], 8.17; as for `C[C@H]1CC[C@H](c2ccccc2)S(=O)(=O)N1Cc1ccc(C2(NCc3ncc[nH]3)CCOCC2)cc1F` [Example 64, 4-[3-fluoro-4-[[(3S,6R)-3-methyl-1,1-dioxo-6-phenyl-thiazinan-2-yl]methyl]phenyl]-N-(1H-imidazol-2-ylmethyl)tetrahydropyran-4-amine], 8.00. `C[C@H]1CC[C@H](c2ccccc2)S(=O)(=O)N1Cc1ccc(C2(NCc3cocn3)CCOCC2)cc1F` [Example 65, 4-[3-fluoro-4-[[(3S,6R)-3-methyl-1,1-dioxo-6-phenyl-thiazinan-2-yl]methyl]phenyl]-N-(oxazol-4-ylmethyl)tetrahydropyran-4-amine] gave a pIC50 of 8.44. Compound `C[C@H]1CC[C@H](c2ccccc2)S(=O)(=O)N1Cc1ccc(C2(NCc3cnccn3)CCOCC2)cc1F` [Example 66, 4-[3-fluoro-4-[[(3S,6R)-3-methyl-1,1-dioxo-6-phenyl-thiazinan-2-yl]methyl]phenyl]-N-(pyrazin-2-ylmethyl)tetrahydropyran-4-amine] showed a pIC50 of 8.18. As for `C[C@H]1CC[C@H](c2ccccc2)S(=O)(=O)N1Cc1ccc(C2(NCc3ncccn3)CCOCC2)cc1F` [Example 67, 4-[3-fluoro-4-[[(3S,6R)-3-methyl-1,1-dioxo-6-phenyl-thiazinan-2-yl]methyl]phenyl]-N-(pyrimidin-2-ylmethyl)tetrahydropyran-4-amine], the figure is 8.03; as for `C[C@H]1CC[C@H](c2ccccc2)S(=O)(=O)N1Cc1ccc(C2(NCc3ccc(=O)[nH]c3)CCOCC2)cc1F` [Example 68, 5-[[[4-[3-fluoro-4-[[(3S,6R)-3-methyl-1,1-dioxo-6-phenyl-thiazinan-2-yl]methyl]phenyl]tetrahydropyran-4-yl]amino]methyl]-1H-pyridin-2-one], 7.41.

For the origin of these results see patent US10259808B2 (Genentech, Inc., priority 2015, dated 2019).
